Test results published in patent US9980943B2, “Methods of treating muscular dystrophy” (BOARD OF REGENTS OF THE NEVADA SYSTEM OF HIGHER EDUCATION, …, priority 2013, dated 2018).

Assays:
Assay type in all cases: cell-based, mouse
[1] = tested on: β-galactosidase in CMV-LacZ C2C12 myoblasts; test: CMV-LacZ secondary screen in C2C12 myoblasts (β-Gal stabilizing assay); conditions: CMV-LacZ C2C12 myoblasts
Outline: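 β-Gal level was the read-out, measured in a clonal C2C12 line expressing LacZ from a CMV promoter. Dose-response curves used six concentrations, 0.5 μM up to 40 μM, with duplicate points.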

[2] = tested on: α7 integrin (LacZ reporter in α7+/LacZ myotubes); test: Myotube α7 integrin FDG assay (Burkin assay in myotubes, 96-well); conditions: myotubes
[3] = tested on: α7 integrin (LacZ reporter in α7βgal+/− myoblasts); test: Myoblast α7+/LacZ integrin FDG assay (Burkin assay in myoblasts, 96-well); conditions: α7+/LacZ myoblasts, 96-well
[4] = tested on: β-galactosidase in CMV-LacZ C2C12 myotubes; test: CMV-LacZ secondary screen in C2C12 myotubes (β-Gal stabilizing assay); conditions: C2C12 CMV-LacZ myotubes, fold relative to DMSO
Outline: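 First, C2C12 myoblasts were transfected with a linearized CMV-LACZ vector and clonal lines selected by FDG β-gal assay. Then cells were exposed to compounds at 0.5, 1, 5, 10, 20 and 40 μM in 96-well format, two replicates each, and β-gal measured.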

| Structure (SMILES) | CMV-LACZ in Myoblasts (β-galactosidase activity relative to DMSO) ([1]; 0.5 uM) | CMV-LACZ in Myoblasts (β-galactosidase activity relative to DMSO) ([1]; 1 uM) | CMV-LACZ in Myoblasts (β-galactosidase activity relative to DMSO) ([1]; 5 uM) | CMV-LACZ in Myoblasts (β-galactosidase activity relative to DMSO) ([1]; 10 uM) | CMV-LACZ in Myoblasts (β-galactosidase activity relative to DMSO) ([1]; 20 uM) | CMV-LACZ in Myoblasts (β-galactosidase activity relative to DMSO) ([1]; 40 uM) | Burkin Assay in Myotubes, α7 integrin LacZ reporter signal relative to DMSO ([2]; 0.5 uM) | Burkin Assay in Myotubes, α7 integrin LacZ reporter signal relative to DMSO ([2]; 1 uM) | Burkin Assay in Myotubes, α7 integrin LacZ reporter signal relative to DMSO ([2]; 5 uM) | Burkin Assay in Myotubes, α7 integrin LacZ reporter signal relative to DMSO ([2]; 10 uM) | Burkin Assay in Myotubes, α7 integrin LacZ reporter signal relative to DMSO ([2]; 20 uM) | Burkin Assay in Myotubes, α7 integrin LacZ reporter signal relative to DMSO ([2]; 40 uM) | Burkin Assay in Myoblasts, signal relative to DMSO ([3]; 0.5 uM) | Burkin Assay in Myoblasts, signal relative to DMSO ([3]; 1 uM) | Burkin Assay in Myoblasts, signal relative to DMSO ([3]; 5 uM) | Burkin Assay in Myoblasts, signal relative to DMSO ([3]; 10 uM) | Burkin Assay in Myoblasts, signal relative to DMSO ([3]; 20 uM) | Burkin Assay in Myoblasts, signal relative to DMSO ([3]; 40 uM) | CMV-LACZ in Myotubes, signal relative to DMSO ([4]; 0.5 uM) | CMV-LACZ in Myotubes, signal relative to DMSO ([4]; 1 uM) | other results |
| --- | --- | --- | --- | --- | --- | --- | --- | --- | --- | --- | --- | --- | --- | --- | --- | --- | --- | --- | --- | --- | --- |
| Cc1cccc2c(N=Nc3ccc(S(=O)(=O)Nc4ccc(Cl)cc4)cc3[N+](=O)[O-])c(O)[nH]c12 [MLS000393762-01] | 0.9560 | 0.9351 | 1.0114 | 1.0198 | 0.3793 | 0.4467 | 0.9402 | 0.925 | 0.9795 | 1.007 | 0.7705 | 0.7046 | 0.9738 | 0.9428 | 0.7799 | 0.6957 | 0.5961 | 0.4696 | 0.8653 | 0.9326 | CMV-LACZ in Myotubes, signal relative to DMSO ([4]; 5 uM): 1.0005; CMV-LACZ in Myotubes, signal relative to DMSO ([4]; 10 uM): 1.0049; CMV-LACZ in Myotubes, signal relative to DMSO ([4]; 20 uM): 1.0800; CMV-LACZ in Myotubes, signal relative to DMSO ([4]; 40 uM): 1.0578 |
| Cc1ccc(NS(=O)(=O)c2cccc(C(=O)O)c2)cc1S(=O)(=O)N1CCOCC1 [MLS000393966-01] | 0.9249 | 1.0625 | 1.1744 | 0.8087 | 1.0411 | 0.9156 | 0.8547 | 0.8436 | 1.304 | 0.9546 | 1.233 | 1.015 | 0.9495 | 0.9626 | 1.793 | 1.076 | 0.9904 | 0.965 | 0.9358 | 1.3516 | CMV-LACZ in Myotubes, signal relative to DMSO ([4]; 5 uM): 0.8958; CMV-LACZ in Myotubes, signal relative to DMSO ([4]; 10 uM): 1.1877; CMV-LACZ in Myotubes, signal relative to DMSO ([4]; 20 uM): 1.0378; CMV-LACZ in Myotubes, signal relative to DMSO ([4]; 40 uM): 1.1167 |
| CCOc1ccc(Br)cc1S(=O)(=O)Nc1ccc(C(=O)Nc2ccccc2OC)cc1 [MLS000418650-01] | 0.9237 | 0.9533 | 1.0080 | 0.8344 | 1.1523 | 1.1323 | 1.086 | 1.004 | 1.032 | 0.9654 | 0.7581 | 0.7593 | 0.9156 | 1.069 | 1.13 | 0.9633 | 0.9104 | 0.9445 | 1.0086 | 1.2819 | CMV-LACZ in Myotubes, signal relative to DMSO ([4]; 5 uM): 1.0198; CMV-LACZ in Myotubes, signal relative to DMSO ([4]; 10 uM): 1.1746; CMV-LACZ in Myotubes, signal relative to DMSO ([4]; 20 uM): 1.1180; CMV-LACZ in Myotubes, signal relative to DMSO ([4]; 40 uM): 1.2260 |
